Values joined by “and” are separate entries in the source; they are usually repeats but may differ in a detail not shown here. Equal entries are not always repeated.
Columns and labels:
[1] = Hydrophobicity investigation of free payloads by UPLC (hydrophobicity model); assay type: physicochemical; details: for Retention Time (min) seco form / Retention Time (min) spiro form: single runs 1-3 (triplicate), 0.1% TFA water/acetonitrile gradient; for Retention Time (min) seco form, Average: Average of runs, D only in seco form, the others observable as single species
Method: Both mobile phases were filtered through 0.22 μm filters and degassed by sonication under argon. Caffeine (Merck, UPLC grade) was employed a standard. Blank solvent samples (i.e., DMSO) were used during sample runs to confirm lack of carryover between injections and to monitor column performance.
UPLC-MS analysis was performed on a Waters Acquity H-Class Ultra-Performance Liquid Chromatography (UPLC) System equipped with an Acquity UPLC BEH, […] 50×2.10 mm (Waters, UK) column and a photodiode array detector […], using Waters MassLynx software. The gradient system used for LC analysis consisted of 0.1% trifluoroacetic acid (TFA) in water as Solvent A, and 0.1% trifluoroacetic acid (TFA) in acetonitrile as Solvent B. TFA was purchased from Merck (UK), and diluted to the required concentration with UPLC grade water and acetonitrile for Solvent A and Solvent B, respectively. TFA was added to ensure acidic conditions throughout the analysis. A flow rate of 0.4 mL/min was used, and the detection wavelength was 254 nm. Mass spectrometry data were collected using a Waters SQ Detector 2 coupled to a Waters Acquity H Class UPLC and a Photo Diode Array Detector (ACQ-PDA). The Waters SQ Detector 2 parameters were set to: Capillary (kV), 3.00; Cone (V), 30; De-solvation Temperature (° C.), 600; Cone flow rate (L/h), 50; De-solvation flow rate (L/h), 600.
Gradient method used: from 95% A/5% B to 20% B over 5 min. Then from 20% B to 60% B over 35 min, followed by from 60% B to 85% B over 10 min. It was further changed from 85% B to 90% B over 5 min and kept for a further 5 min. Finally, from 90% B to 95% B over 2.5 min, and then to 20% B over 2.5 min. 10 μL was split via a zero-dead volume T-piece which passed into the mass spectrometer.
Compounds were provided in powder form and were dissolved in DMSO to achieve 5 mM stock solution. This solution was then diluted to 500 μM with 50% acetonitrile/50% water.
A number of commercially available ADC payloads and internal reference compounds were also incorporated into the analysis, and their structures are presented in Table 3.

[2] = test system: RAJI (Lymphoma); test: MTT in vitro cytotoxicity, 72 hour incubation; assay type: cell-based; details: Homo sapiens, MTT assay, RAJI cells
Method: (§1) The in vitro cytotoxicity of a selection of compounds was determined in a panel of cell lines using the standard MTT assay for a 72 hour incubation period (Table 1).
(§2) Tumor cell lines were maintained in RPMI1640 medium supplemented with 10% heat-inactivated fetal bovine serum, 2 mM L-glutamine and 1 mM sodium pyruvate. 1800 cells per well were seeded in a volume of 180 μl in a 96-well flat bottom polystyrene plate. The cells were allowed to adhere overnight at 37° C. in a CO2 incubator. Ligands were initially formulated in DMSO, and stocks stored at −80° C. They were then further formulated at lox concentration in RPMI1640 medium. 20 μl of diluted samples were added into each treatment well. On each plate, blank wells with no cells, and untreated wells containing cells, were included. Plates were then cultured at 37° C. in a CO2 incubator for 72 hrs. Cytotoxicity was evaluated using a tetrazolium salt-based assay, the MTT assay. After 72 hours, the supernatant was removed from each well and 200 μl of a sterile filtered 500 μg/ml MTT solution in water added to each well. The plates were then incubated at 37° C. in a CO2 incubator for 4 hrs. The supernatant was then removed and the formazan crystals formed solubilized by adding 150 μl of DMSO to each well. The plate was then read on a plate reader at 540 nm, and percentage cell survival calculated as follows: ((mean absorbance treated wells at concentration×−mean absorbance blank wells)÷(mean absorbance untreated wells at concentration×−mean absorbance blank wells))×100. Data were plotted as concentration in nM vs. % cell survival in Microsoft Excel, and IC50 values (concentration where cell survival is reduced by a half) were determined from the graph.

[3] = test system: Jurkat (Leukaemia); test: MTT in vitro cytotoxicity, 72 hour incubation; assay type: cell-based; details: Homo sapiens, MTT assay, Jurkat cells
Method: as §1, §2

[4] = test system: JVM2 (Lymphoma); test: MTT in vitro cytotoxicity, 72 hour incubation; assay type: cell-based; details: Homo sapiens, JVM-2, MTT assay, JVM2 cells
Method: as §1, §2

SMILES	Retention Time (min) seco form [1]	Retention Time (min) spiro form [1]	IC50 [2]	IC50 [3]	IC50 [4]	Retention Time (min) seco form, Average [1]	enhanced hydrophilicity (retention time) compared to the unsubstituted compound (B) ([1]; carbamate pro-drug D versus B)
COc1cc2c(cc1OCCCCCC(=O)N1C[C@@H](CCl)c3c1cc(O)c1ccccc31)N=C[C@@H]1CCCCN1C2=O [A, reference compound]	22.55 min and 22.56 min	14.85 min and 14.83 min and 14.84 min	–	–	–	–	–
COc1cc2c(cc1OCc1cccc(CC(=O)N3C[C@@H](CCl)c4c3cc(O)c3ccccc43)c1)N=C[C@@H]1CCCCN1C2=O [B, reference compound]	23.64 min and 23.65 min	16.10 min and 16.12 min and 16.09 min	–	–	–	–	–
COc1cc2c(cc1OCCCCCC(=O)N1C[C@@H](CCl)c3c1cc(O)c1ccccc31)N=C[C@@H]1CCCN1C2=O [C, reference compound]	20.16 min and 20.15 min	12.49 min and 12.48 min and 12.45 min	–	–	–	–	–
CNS(=O)(=O)c1ccc(C2=CCN3C(=O)c4cc(OC)c(OCCOCCC(=O)N5C[C@@H](CCl)c6c5cc(O)c5ccccc65)cc4N=C[C@@H]3C2)cc1 [Compound 76, 4-((S)-3-(2-(3-((S)-1-(Chloromethyl)-5-hydroxy-1,2-dihydro-3H-benzo[e]indol-3-yl)-3-oxopropoxy)ethoxy)-2-methoxy-12-oxo-6a,7,10,12-tetrahydrobenzo[e]pyrido[1,2-a][1,4]diazepin-8-yl)-N-methylbenzenesulfonamide]	20.14 min	13.29 min and 13.28 min	0.0172 nM	0.0095 nM	0.0138 nM	–	–
CNS(=O)(=O)c1ccc(C2=CCN3C(=O)c4cc(OC)c(OC[C@@H](O)CC(=O)N5C[C@@H](CCl)c6c5cc(O)c5ccccc65)cc4N=C[C@@H]3C2)cc1 [Compound 88, 4-((S)-3-((S)-4-((S)-1-(Chloromethyl)-5-hydroxy-1,2-dihydro-3H-benzo[e]indol-3-yl)-2-hydroxy-4-oxobutoxy)-2-methoxy-12-oxo-6a,7,10,12-tetrahydrobenzo[e]pyrido[1,2-a][1,4]diazepin-8-yl)-N-methylbenzenesulfonamide]	18.73 min and 18.70 min	12.47 min and 12.45 min	0.954 nM	0.97 nM	0.49 nM	–	–
CNS(=O)(=O)c1ccc(C2=CCN3C(=O)c4cc(OC)c(OC[C@H](O)CC(=O)N5C[C@@H](CCl)c6c5cc(O)c5ccccc65)cc4N=C[C@@H]3C2)cc1 [Compound 92, 4-((S)-3-((R)-4-((S)-1-(Chloromethyl)-5-hydroxy-1,2-dihydro-3H-benzo[e]indol-3-yl)-2-hydroxy-4-oxobutoxy)-2-methoxy-12-oxo-6a,7,10,12-tetrahydrobenzo[e]pyrido[1,2-a][1,4]diazepin-8-yl)-N-methylbenzenesulfonamide]	18.82 min and 18.84 min	12.16 min and 12.18 min	0.41 nM	0.55 nM	0.12 nM	–	–
COc1cc2c(cc1OCCCCCC(=O)N1C[C@@H](CCl)c3c1cc(O)c1ccccc31)N=C[C@@H]1CC(c3ccsc3)=CCN1C2=O [Compound 96, (S)-3-((6-((S)-1-(Chloromethyl)-5-hydroxy-1,2-dihydro-3H-benzo[e]indol-3-yl)-6-oxohexyl)oxy)-2-methoxy-8-(thiophen-3-yl)-7,10-dihydrobenzo[e]pyrido[1,2-a][1,4]diazepin-12(6aH)-one]	28.04 min and 28.08 min and 28.06 min	21.00 min and 21.02 min	0.0014 nM	–	–	–	–
COc1cc2c(cc1OCCCC(=O)N1C[C@@H](CCl)c3c1cc(O)c1ccccc31)N=C[C@@H]1CC(c3ccsc3)=CCN1C2=O [Compound 100, (S)-3-(4-((S)-1-(Chloromethyl)-5-hydroxy-1,2-dihydro-3H-benzo[e]indol-3-yl)-4-oxobutoxy)-2-methoxy-8-(thiophen-3-yl)-7,10-dihydrobenzo[e]pyrido[1,2-a][1,4]diazepin-12(6aH)-one]	25.24 min and 25.23 min	17.94 min and 17.89 min and 17.93 min	–	–	0.001 nM	–	–
COc1cc2c(cc1OCCOCCC(=O)N1C[C@@H](CCl)c3c1cc(O)c1ccccc31)N=C[C@@H]1CC(c3ccsc3)=CCN1C2=O [Compound 104, (S)-3-(2-(3-((S)-1-(Chloromethyl)-5-hydroxy-1,2-dihydro-3H-benzo[e]indol-3-yl)-3-oxopropoxy)ethoxy)-2-methoxy-8-(thiophen-3-yl)-7,10-dihydrobenzo[e]pyrido[1,2-a][1,4]diazepin-12(6aH)-one]	24.10 min and 24.09 min	16.90 min and 16.93 min and 16.91 min	0.0025 nM	0.0095 nM	0.0018 nM	–	–
COc1cc2c(cc1OC[C@@H](O)CC(=O)N1C[C@@H](CCl)c3c1cc(O)c1ccccc31)N=C[C@@H]1CC(c3ccsc3)=CCN1C2=O [Compound 108, (S)-3-((S)-4-((S)-1-(Chloromethyl)-5-hydroxy-1,2-dihydro-3H-benzo[e]indol-3-yl)-2-hydroxy-4-oxobutoxy)-2-methoxy-8-(thiophen-3-yl)-7,10-dihydrobenzo[e]pyrido[1,2-a][1,4]diazepin-12(6aH)-one]	22.54 min and 22.53 min	15.71 min and 15.69 min and 15.70 min	0.01 nM	0.014 nM	0.0047 nM	–	–
COc1cc2c(cc1OCc1cccc(CC(=O)N3C[C@@H](CCl)c4c3cc(OC(=O)N3CCN(C)CC3)c3ccccc43)c1)N=C[C@@H]1CCCCN1C2=O [D, reference compound]	–	–	–	–	–	17.03 min	approximately 10 mins
COc1cc2c(cc1OCc1cc(N)cc(COc3cc4c(cc3OC)C(=O)N3c5ccccc5C[C@H]3CN4)c1)N=C[C@@H]1Cc3ccccc3N1C2=O [DGN549, reference compound]	–	–	–	–	–	16.60 min	–
COc1cc2cc(c1Cl)N(C)C(=O)C[C@](C)(OC(=O)[C@@H](C)N(C)C(=O)CCSC)[C@]1(C)O[C@H]1[C@H](C)[C@@H]1C[C@@](O)(NC(=O)O1)[C@H](OC)/C=C/C=C(\C)C2 [DM1, reference compound]	–	–	–	–	–	21.24 min	–
CC[C@H](C)C[C@H](OC)[C@@H](C(=O)N1CCC[C@H]1[C@@H](CC(=O)N[C@H](C)[C@@H](O)c1ccccc1)OC)N(C)C(=O)[C@@H](NC(=O)[C@@H](NC)C(C)C)C(C)C [MMAE, reference compound]	–	–	–	–	–	12.04 min	–
COc1cc2c(cc1OCCCCCOc1cc3c(cc1OC)C(=O)N1C=C(C)C[C@H]1C=N3)C=C[C@@H]1CC(C)=CN1C2=O [SG3199, reference compound]	–	–	–	–	–	12.02 min	–
COc1ccc(C2=CN3C(=O)c4cc(OC)c(OCCCOc5cc6c(cc5OC)C(=O)N5C=C(c7ccc(N)cc7)C[C@H]5C=N6)cc4N=C[C@@H]3C2)cc1 [SGD1882, reference compound]	–	–	–	–	–	12.55 min	–
CCc1c2c(nc3ccc(O)cc13)-c1cc3c(c(=O)n1C2)COC(=O)[C@]3(O)CC [SN38, reference compound]	–	–	–	–	–	7.13 min	–
